Source: article PMC3727052 (Bioorganic & medicinal chemistry, 2012)

Assays:
Reovirus-1 = experiment: Virus-induced cytopathicity, reovirus-1 in Vero cells; assay type: cell-based; settings: read-out: EC50 Reovirus-1
HEL = HEL cells, microscopically visible alteration of cell morphology
Vero = Vero cells, microscopically visible alteration of cell morphology
VZV (OKA & 07/1) = experiment: VZV plaque formation assay in HEL cells; assay type: cell-based, varicella-zoster virus; settings: Human alphaherpesvirus 3, HEL, 120 h, read-out: EC50 VZV (OKA & 07/1)
Parainfluenza-3 virus = experiment: Virus-induced cytopathicity, parainfluenza-3 virus in Vero cells; assay type: cell-based; settings: read-out: EC50 Parainfluenza-3 virus
HeLa = HeLa cells, microscopically visible alteration of cell morphology
MDCK = MDCK cells, microscopically visible alteration of cell morphology
Influenza virus B = experiment: Virus-induced cytopathicity, influenza B in MDCK cells; assay type: cell-based; settings: unidentified influenza virus, read-out: EC50 Influenza virus B
Influenza virus (AH3N2) = experiment: Virus-induced cytopathicity, influenza A H3N2 in MDCK cells; assay type: cell-based; settings: unidentified influenza virus, read-out: EC50 Influenza virus (AH3N2)
RSV = experiment: Virus-induced cytopathicity, RSV in HeLa cells; assay type: cell-based; settings: human respiratory syncytial virus, read-out: EC50 RSV

## Nc1nc2c(sc3ncn([C@H]4C[C@H](O)[C@@H](CO)O4)c32)c(=O)[nH]1 [Compound 5, 1-[(5-Aminoimidazo[4′,5′:4,5]thieno[3,2-d]pyrimidin-3-yl-7-one)]-β-D-2′-deoxyribofuranose]
Reovirus-1
  EC50: > 100 µM
HEL
  MCC (minimal cytotoxic concentration) HEL: >100 µM
Vero
  MCC (minimal cytotoxic concentration) Vero: 100 µM
VZV (OKA & 07/1)
  EC50: 71.3 to 100 µM
Parainfluenza-3 virus
  EC50: > 100 µM
HeLa
  MCC (minimal cytotoxic concentration) HeLa: 100 µM
MDCK
  MCC (minimal cytotoxic concentration) MDCK: 0.8 µM

## Nc1ncnc2c1sc1ncn([C@H]3C[C@H](O)[C@@H](CO)O3)c12 [Compound 6, 1-[(7-aminoimidazo[4′,5′:4,5]thieno[3,2-d]pyrimidin-3-yl)]-β-D-2′-deoxyribofuranose]
HEL
  MCC (minimal cytotoxic concentration) HEL: ≥20 µM
Vero
  MCC (minimal cytotoxic concentration) Vero: >100 µM
Parainfluenza-3 virus
  EC50: > 100 µM
HeLa
  MCC (minimal cytotoxic concentration) HeLa: >100 µM
MDCK
  MCC (minimal cytotoxic concentration) MDCK: 20 µM

## NC(=O)c1ncn([C@@H]2O[C@H](CO)[C@@H](O)[C@H]2O)n1 [Ribavirin]
Reovirus-1
  EC50: > 250 µM
Influenza virus B
  EC50: 4.5 to 9 µM
Influenza virus (AH3N2)
  EC50: 5.1 to 9 µM
RSV
  EC50: 10 µM
